Measurements published in the supplement of paper PMC10307832.

Key:
Experiment in all cases: relative viability (nuclei count vs DMSO), 5 days (fraction); higher = more cells survive
SK-MES-1 = tested on: SK-MES-1
Procedure, shortened: (§1)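 Values are medians from duplicate plates. Each reflects relative viability, defined as the nuclei count of treated wells over that of vehicle wells. Lung cancer cell lines in 1536-well plates were pin-tool dosed one day after seeding with one drug alone or with a fixed anchor-drug dose plus five library-drug doses (not always all listed) in √10 steps, then fixed, stained and imaged at 4× after 5 days.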

NCI-H1734 = tested on: NCI-H1734
Procedure, shortened: as §1

HCC-827 = tested on: HCC-827
Procedure, shortened: as §1

NCI-H2009 = tested on: NCI-H2009
Procedure, shortened: as §1

LOU-NH91 = tested on: LOU-NH91
Procedure, shortened: as §1

HARA = tested on: HARA
Procedure, shortened: as §1

NCI-H1395 = tested on: NCI-H1395
Procedure, shortened: as §1

BEN = tested on: BEN
Procedure, shortened: as §1

NCI-H661 = tested on: NCI-H661
Procedure, shortened: as §1

NCI-H2405 = tested on: NCI-H2405
Procedure, shortened: as §1

NCI-H1993 = tested on: NCI-H1993
Procedure, shortened: as §1

NCI-H2170 = tested on: NCI-H2170
Procedure, shortened: as §1

SK-LU-1 = tested on: SK-LU-1
Procedure, shortened: as §1

NCI-H1437 = tested on: NCI-H1437
Procedure, shortened: as §1

NCI-H2087 = tested on: NCI-H2087
Procedure, shortened: as §1

NCI-H647 = tested on: NCI-H647
Procedure, shortened: as §1

NCI-H1792 = tested on: NCI-H1792
Procedure, shortened: as §1

EKVX = tested on: EKVX
Procedure, shortened: as §1

NCI-H1355 = tested on: NCI-H1355
Procedure, shortened: as §1

HCC-366 = tested on: HCC-366
Procedure, shortened: as §1

## CCN(CC)CCCCNc1ncc2cc(-c3cc(OC)cc(OC)c3)c(NC(=O)NC(C)(C)C)nc2n1 + Cc1nc(NC(=O)N2CCC[C@H]2C(N)=O)sc1-c1ccnc(C(C)(C)C(F)(F)F)c1 [Alpelisib] (partner 2 µM)
SK-MES-1; first compound 0.01 µM
  relative viability: 1.12
SK-MES-1; first compound 0.03162 µM
  relative viability: 0.934
SK-MES-1; first compound 0.1 µM
  relative viability: 0.877
SK-MES-1; first compound 0.3162 µM
  relative viability: 1.03
SK-MES-1; first compound 1 µM
  relative viability: 0.849
NCI-H1734; first compound 0.01 µM
  relative viability: 0.728
NCI-H1734; first compound 0.03162 µM
  relative viability: 0.69
NCI-H1734; first compound 0.1 µM
  relative viability: 0.713
NCI-H1734; first compound 0.3162 µM
  relative viability: 0.707
NCI-H1734; first compound 1 µM
  relative viability: 0.708
HCC-827; first compound 0.01 µM
  relative viability: 0.968
HCC-827; first compound 0.03162 µM
  relative viability: 0.967
HCC-827; first compound 0.1 µM
  relative viability: 1.02
HCC-827; first compound 0.3162 µM
  relative viability: 1.16
HCC-827; first compound 1 µM
  relative viability: 1.02
NCI-H2009; first compound 0.01 µM
  relative viability: 1.15
NCI-H2009; first compound 0.03162 µM
  relative viability: 1.14
NCI-H2009; first compound 0.1 µM
  relative viability: 1.24
NCI-H2009; first compound 0.3162 µM
  relative viability: 1.18
NCI-H2009; first compound 1 µM
  relative viability: 1.16
LOU-NH91; first compound 0.01 µM
  relative viability: 0.672
LOU-NH91; first compound 0.03162 µM
  relative viability: 0.673
LOU-NH91; first compound 0.1 µM
  relative viability: 0.741
LOU-NH91; first compound 0.3162 µM
  relative viability: 0.734
LOU-NH91; first compound 1 µM
  relative viability: 0.696
HARA; first compound 0.01 µM
  relative viability: 1.06
HARA; first compound 0.03162 µM
  relative viability: 0.872
HARA; first compound 0.1 µM
  relative viability: 1.03
HARA; first compound 0.3162 µM
  relative viability: 0.801
HARA; first compound 1 µM
  relative viability: 0.685
NCI-H1395; first compound 0.03162 µM
  relative viability: 1.19
NCI-H1395; first compound 0.1 µM
  relative viability: 1.07
NCI-H1395; first compound 0.3162 µM
  relative viability: 0.802
NCI-H1395; first compound 1 µM
  relative viability: 0.637
BEN; first compound 0.01 µM
  relative viability: 1.17
BEN; first compound 0.03162 µM
  relative viability: 0.891
BEN; first compound 0.1 µM
  relative viability: 0.882
BEN; first compound 0.3162 µM
  relative viability: 1.12
BEN; first compound 1 µM
  relative viability: 0.801
NCI-H661; first compound 0.01 µM
  relative viability: 0.537
NCI-H661; first compound 0.03162 µM
  relative viability: 0.382
NCI-H661; first compound 0.1 µM
  relative viability: 0.657
NCI-H661; first compound 0.3162 µM
  relative viability: 0.858
NCI-H661; first compound 1 µM
  relative viability: 0.535
NCI-H2405; first compound 0.01 µM
  relative viability: 0.574
NCI-H2405; first compound 0.03162 µM
  relative viability: 0.709
NCI-H2405; first compound 0.1 µM
  relative viability: 0.814
NCI-H2405; first compound 0.3162 µM
  relative viability: 0.862
NCI-H2405; first compound 1 µM
  relative viability: 0.72
NCI-H1993; first compound 0.01 µM
  relative viability: 0.635
NCI-H1993; first compound 0.03162 µM
  relative viability: 0.707
NCI-H1993; first compound 0.1 µM
  relative viability: 0.691
NCI-H1993; first compound 0.3162 µM
  relative viability: 0.677
NCI-H1993; first compound 1 µM
  relative viability: 0.672
NCI-H2170; first compound 0.01 µM
  relative viability: 0.92
NCI-H2170; first compound 0.03162 µM
  relative viability: 0.822
NCI-H2170; first compound 0.1 µM
  relative viability: 0.831
NCI-H2170; first compound 0.3162 µM
  relative viability: 0.894
NCI-H2170; first compound 1 µM
  relative viability: 0.807
SK-LU-1; first compound 0.01 µM
  relative viability: 1.06
SK-LU-1; first compound 0.03162 µM
  relative viability: 1.08
SK-LU-1; first compound 0.1 µM
  relative viability: 1.18
SK-LU-1; first compound 0.3162 µM
  relative viability: 1.21
SK-LU-1; first compound 1 µM
  relative viability: 0.65
NCI-H1437; first compound 0.01 µM
  relative viability: 1.23
NCI-H1437; first compound 0.03162 µM
  relative viability: 0.944
NCI-H1437; first compound 0.1 µM
  relative viability: 1
NCI-H1437; first compound 0.3162 µM
  relative viability: 1.03
NCI-H1437; first compound 1 µM
  relative viability: 0.947
NCI-H2087; first compound 0.01 µM
  relative viability: 1.12
NCI-H2087; first compound 0.03162 µM
  relative viability: 1.03
NCI-H2087; first compound 0.1 µM
  relative viability: 1.53
NCI-H2087; first compound 0.3162 µM
  relative viability: 1.23
NCI-H2087; first compound 1 µM
  relative viability: 1.15
NCI-H647; first compound 0.01 µM
  relative viability: 1.41
NCI-H647; first compound 0.03162 µM
  relative viability: 1.3
NCI-H647; first compound 0.1 µM
  relative viability: 1.31
NCI-H647; first compound 0.3162 µM
  relative viability: 1.13
NCI-H647; first compound 1 µM
  relative viability: 0.465
NCI-H1792; first compound 0.01 µM
  relative viability: 0.797
NCI-H1792; first compound 0.03162 µM
  relative viability: 0.674
NCI-H1792; first compound 0.1 µM
  relative viability: 0.51
NCI-H1792; first compound 0.3162 µM
  relative viability: 0.766
NCI-H1792; first compound 1 µM
  relative viability: 0.563
EKVX; first compound 0.01 µM
  relative viability: 0.818
EKVX; first compound 0.03162 µM
  relative viability: 0.898
EKVX; first compound 0.1 µM
  relative viability: 0.875
EKVX; first compound 0.3162 µM
  relative viability: 1.04
EKVX; first compound 1 µM
  relative viability: 0.893
NCI-H1355; first compound 0.01 µM
  relative viability: 0.776
NCI-H1355; first compound 0.03162 µM
  relative viability: 0.847
NCI-H1355; first compound 0.1 µM
  relative viability: 0.894
NCI-H1355; first compound 0.3162 µM
  relative viability: 0.839
NCI-H1355; first compound 1 µM
  relative viability: 0.785
HCC-366; first compound 0.01 µM
  relative viability: 0.385
HCC-366; first compound 0.03162 µM
  relative viability: 0.326
HCC-366; first compound 0.1 µM
  relative viability: 0.757
HCC-366; first compound 0.3162 µM
  relative viability: 0.584
HCC-366; first compound 1 µM
  relative viability: 0.47
